This passage reports Cell survival and GI50 results from ChEMBL document CHEMBL1135835, “Biological activity of the tryprostatins and their diastereomers on human carcinoma cell lines” (2002).

What all share (type): functional
For assay [1], the system named is MCF7. Kind of assay: Growth inhibitory activity against MCF-7 (human breast) cancer cell line at 10 uM dose.
The subject of assay [2] is MCF7. Description: Growth inhibitory activity against MCF-7 (human breast) cancer cell line at 100 uM dose.
The subject of assay [3] is NCI-H520. Description: Growth inhibitory activity against H520 (human lung) cancer cell line at 10 uM dose.
The test system of assay [4] is NCI-H520. Description: Growth inhibitory activity against H520 (human lung) cancer cell line at 100 uM dose.
The subject of assay [5] is PC-3. Description: Growth inhibitory activity against PC-3 (human prostate) cancer cell line at 100 uM dose.
Assay [6] has as its system PC-3. Kind of assay: Growth inhibitory activity against PC-3 (human prostate) cancer cell line at 10 uM dose.
Assay [7] has as its system MCF7. Kind of assay: Gowth inhibitory activity against MCF-7 (human lbreast) cancer cell line.
In assay [8] the test system is PC-3. Description: Growth inhibitory activity against PC-3 (human prostate) cancer cell line.
In a further assay the test system is NCI-H522. Description: Growth inhibitory activity against NCI-H522 (human lung) cancer cell line.

`CC(C)=CCc1[nH]c2ccccc2c1C[C@H]1NC(=O)[C@H]2CCCN2C1=O`: the Cell survival in the assay on MCF7 [1] is recorded as more than 100%; in the assay on MCF7 [2], more than 100%; with NCI-H520 [3] it was more than 100%; in the assay with NCI-H520 [4] it was 99.8%; in the assay with PC-3 [5] it was 78.9%; in the assay with PC-3 [6] it was 95.8%.

With `CC(C)=CCc1[nH]c2ccccc2c1C[C@H]1NC(=O)[C@@H]2CCCN2C1=O`, the Cell survival in the assay on MCF7 [1] is listed as more than 100%; in the assay with MCF7 [2] it was more than 100%; in the assay on NCI-H520 [3] it was more than 100%; in the assay with NCI-H520 [4], 76.5%; with PC-3 [5], 68.5%; in the assay on PC-3 [6], 97.3%.

A word on the GI50: it is the concentration giving 50% growth inhibition. Low readings indicate greater sensitivity of the cells, high ones lower sensitivity of the cells. As for `CC(C)=CCc1[nH]c2ccccc2c1C[C@@H]1NC(=O)[C@H]2CCCN2C1=O`, the values for the 50% growth inhibitory concentration (GI50) in the assay on MCF7 [7], in the assay with PC-3 [8] and with NCI-H522 were 15.9 µM, 11.9 µM and 15.8 µM, respectively. Further, the Cell survival in the assay on MCF7 [1] is reported as 73.6%; in the assay on MCF7 [2], 0%; in the assay on NCI-H520 [3] it was 88.3%; in the assay with NCI-H520 [4] it was 0.1%; in the assay on PC-3 [5] it was 0.2%; in the assay with PC-3 [6], 59.3%.

Take `COc1ccc2c(C[C@H]3NC(=O)[C@H]4CCCN4C3=O)c(CC=C(C)C)[nH]c2c1`: the Cell survival was more than 100% in the assay with MCF7 [1]; more than 100% with MCF7 [2]; 81.7% in the assay with NCI-H520 [3]; 75.2% in the assay with NCI-H520 [4]; 83.7% in the assay on PC-3 [5]; more than 100% in the assay with PC-3 [6].

As for `COc1ccc2c(C[C@@H]3NC(=O)[C@H]4CCCN4C3=O)c(CC=C(C)C)[nH]c2c1`, the Cell survival in the assay on MCF7 [1] was more than 100%; in the assay on MCF7 [2] it was 99%; in the assay on NCI-H520 [3], 99.3%; in the assay with NCI-H520 [4], 98.5%; in the assay on PC-3 [5], more than 100%; in the assay with PC-3 [6] it was more than 100%.

With `COc1ccc2c(C[C@H]3NC(=O)[C@@H]4CCCN4C3=O)c(CC=C(C)C)[nH]c2c1`, the Cell survival in the assay with MCF7 [1], in the assay with MCF7 [2], with NCI-H520 [3], in the assay with NCI-H520 [4], in the assay on PC-3 [5] and in the assay with PC-3 [6] was more than 100% throughout.

For the compound `COc1ccc2c(C[C@@H]3NC(=O)[C@@H]4CCCN4C3=O)c(CC=C(C)C)[nH]c2c1` [TRYPROSTATIN A], the Cell survival is given as more than 100% with MCF7 [1]; 95% in the assay with MCF7 [2]; 80.1% in the assay with NCI-H520 [3]; 79.4% with NCI-H520 [4]; 95.6% in the assay on PC-3 [5]; 99.2% in the assay with PC-3 [6].

As to `CC(C)=CCc1[nH]c2ccccc2c1C[C@@H]1NC(=O)[C@@H]2CCCN2C1=O` [TRYPROSTATIN B], the Cell survival with MCF7 [1] is 88.2%; in the assay on MCF7 [2], 66.7%; with NCI-H520 [3], 77.6%; in the assay with NCI-H520 [4] it was 60.5%; with PC-3 [5], 68.9%; in the assay with PC-3 [6], 95.5%.
